# According to patent US11976083B2, “Inhibitors of peptidylarginine deiminases” (Gilead Sciences, Inc., priority 2020, dated 2024):
# Biological target: T1, human PAD4 (Homo sapiens, UniProt Q9UM07)
# T1 construct: human PAD4 (NM_012387), A2-P663, was PCR amplified; His-SUMO (N, cleaved yes); made in house; host or cells: E. coli BL21(DE3)
# Experiment: In vitro PAD4 BAEE biochemical assay
# Conditions: BAEE substrate 3 mM, 5 nM PAD4, 2 mM calcium chloride; geometric mean of multiple experiments
# Summary of the method: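 Assay was run at 25 °C using 3 mM BAEE and 5 nM human PAD4 after a 30 min compound preincubation; ammonia produced over 2 h was quantified by OPA-derived fluorescence. Full inhibition was defined by 50 µM BB-Cl-Amidine, and IC50 came from variable-slope nonlinear regression.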
# T1 sequence (Q9UM07 2-663): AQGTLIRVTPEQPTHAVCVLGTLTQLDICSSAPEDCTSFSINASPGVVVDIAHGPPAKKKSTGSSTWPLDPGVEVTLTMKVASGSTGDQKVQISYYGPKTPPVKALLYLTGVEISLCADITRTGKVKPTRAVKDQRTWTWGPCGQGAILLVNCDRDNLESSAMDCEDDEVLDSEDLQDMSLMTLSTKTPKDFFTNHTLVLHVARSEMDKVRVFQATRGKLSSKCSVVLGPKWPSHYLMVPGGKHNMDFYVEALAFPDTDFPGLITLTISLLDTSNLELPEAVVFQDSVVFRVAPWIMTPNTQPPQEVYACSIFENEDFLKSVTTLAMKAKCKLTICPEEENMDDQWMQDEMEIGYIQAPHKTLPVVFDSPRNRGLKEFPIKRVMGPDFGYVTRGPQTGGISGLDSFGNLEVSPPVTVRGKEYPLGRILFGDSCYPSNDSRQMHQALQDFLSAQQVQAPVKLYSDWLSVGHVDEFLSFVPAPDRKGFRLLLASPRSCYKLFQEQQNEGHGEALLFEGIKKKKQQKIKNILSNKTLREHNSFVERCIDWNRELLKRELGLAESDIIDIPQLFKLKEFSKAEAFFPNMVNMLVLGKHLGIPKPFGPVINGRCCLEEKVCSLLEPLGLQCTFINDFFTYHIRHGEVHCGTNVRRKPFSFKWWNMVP
row,IC50,Compound
1,136 nM,COc1cc(C(=O)N2CC[C@@H](OCC34CC(F)(C3)C4)[C@@H](N)C2)cc2nc(-c3cc4ccc5nc4n3CCCCC[C@@H]3C[C@H]3C(=O)N[C@@H]5C)n(C)c12 [Example 494]
2,18 nM,"COc1cc(C(=O)N2[C@H]3CC[C@@H]2[C@H](N)C3)cc2nc(-c3cc4ccc5nc4n3CCCCCC[C@@H]3CCN(C3=O)[C@@H]5C)n(C)c12 [Example 138, (2˜{R},6˜{R})-14-[5-[(1˜{R},2˜{R},4˜{S})-2-amino-7-azabicyclo[2.2.1]heptane-7-carbonyl]-7-methoxy-1-methyl-benzimidazol-2-yl]-2-methyl-3,13,19-triazatetracyclo[11.5.2.1^{3,6}.0^{16,20}]henicosa-1(19),14,16(20),17-tetraen-21-one]"
3,161 nM,"COCCn1c(-c2cc3ccc4nc3n2CCCCC[C@@H]2C[C@H]2C(=O)N[C@@H]4C)nc2cc(C(=O)N3CC[C@@H](OC)[C@@H](N)C3)cc(OC)c21 [Example 432, (2~{R},5~{R},7~{R})-14-[5-[(3~{S},4~{R})-3-amino-4-methoxy-piperidine-1-carbonyl]-7-methoxy-1-(2-methoxyethyl)benzimidazol-2-yl]-2-methyl-3,13,19-triazatetracyclo[11.5.2.0^{5,7}.0^{16,20}] icosa-1(19),14,16(20),17-tetraen-4-one]"
4,104 nM,"CCOCCn1c(-c2cc3ccc4nc3n2CCCCCCC(C)(C)C(=O)N[C@@H]4C)nc2cc(C(=O)N[C@H]3CNCC[C@@H]3F)c(F)cc21 [Example 425, 1-(2-ethoxyethyl)-6-fluoro-~{N}-[(3~{S},4~{S})-4-fluoro-3-piperidyl]-2-[(11~{R})-8,8,11-trimethyl-9-oxo-1,10,19-triazatricyclo[10.5.2.0^{15,18}]nonadeca-12(19),13,15(18),16-tetraen-17-yl]benzimidazole-5-carboxamide]"
5,28 nM,"COc1cc(C(=O)N2C[C@H](N)[C@@H]3CC[C@H]2C3)cc2nc(-c3cc4ccc5nc4n3CC(F)(F)CCCOC(C)(C)C(=O)N[C@@H]5C)n(C3CC3)c12 [Example 771, (11~{R})-17-[5-[(1~{S),4~{R}, 5~{R})-4-amino-2-azabicyclo [3.2.1]octane-2-carbonyl]-1-cyclopropyl-7-methoxy-benzimidazol-2-yl]-3,3-difluoro-8,8,11-trimethyl-7-oxa-1,10,19-triazatricyclo[10.5.2.0^ {15,18}]nonadeca-12(19),13,15(18),16-tetraen-9-one]"
6,29 nM,"C[C@H]1NC(=O)[C@@H]2C[C@H]2CCCCCn2c(-c3nc4cc(C(=O)N[C@H]5CNCC[C@@H]5F)c(F)cc4n3CCC(N)=O)cc3ccc1nc32 [Example 428, 1-(3-amino-3-oxo-propyl)-6-fluoro-~ {N}-[(3~{S},4~{S})-4-fluoro-3-piperidyl]-2-[(2~{R},5~{R},7~{R})-2-methyl-4-oxo-3,13,19-triazatetracyclo[11.5.2.0^{5,7}.0^{16,20}]icosa-1(19),14,16(20),17-tetraen-14-yl]benzimidazole-5-carboxamide]"
7,41 nM,"C[C@H]1NC(=O)[C@@H]2C[C@H]2CCCCCn2c(-c3nc4cc(C(=O)N[C@H]5CNCC[C@@H]5F)c(F)cc4n3CCOc3ccccn3)cc3ccc1nc32 [Example 434, 6-fluoro-~{N}-[(3~{S),4~{S})-4-fluoro-3-piperidyl]-2-[(2~{R},5~{R},7~{R})-2-methyl-4-oxo-3,13,19-triazatetracyclo[11.5.2.0^{5,7}.0^{16,20}]icosa-1(19),14,16(20),17-tetraen-14-yl]-1-[2-(2-pyridyloxy)ethyl]benzimidazole-5-carboxamide]"
8,307 nM,"CO[C@@H]1CCN(C(=O)c2cc3c4c(c2)nc(-c2cc5ccc6nc5n2CCCCC[C@@H]2C[C@H]2C(=O)N[C@@H]6C)n4CCO3)C[C@@H]1N [Example 729, (2~{R},5~{R},7~{R})-14-[6-[(3~{S},4~{R})-3-amino-4-methoxy-piperidine-1-carbonyl]-9-oxa-1,3-diazatricyclo [6.3.1.0^{4,12}]dodeca-2,4,6,8(12)-tetraen-2-yl]-2-methyl-3,13,19-triazatetracyclo[11.5.2.0^ {5,7}.0^{16,20}] icosa-1(19),14,16(20),17-tetraen-4-one]"
